Earlier results as cited in US11369619B2, “Composition for curing migraine headaches” (priority 2014, dated 2022).

Columns and labels:
migraine = details: topical administration
[1] = taken orally, dosages of several hundred milligrams per day
male mice = details: intravenous

CCN(CC)CC(=O)Nc1c(C)cccc1C [lidocaine]
patients in whom treatment was effective (migraine): about 55%

Cc1ncc(C[n+]2csc(CCO)c2C)c(N)n1 [thiamine]
adverse effects [1]: no reports of adverse effects

C[C@@H]1C[C@H]2[C@@H]3CCC4=CC(=O)C=C[C@]4(C)[C@@]3(F)[C@@H](O)C[C@]2(C)[C@@]1(O)C(=O)COP(=O)(O)O [dexamethasone sodium phosphate]
LD50 (male mice): 794 mg/kg

C[C@@H]1C[C@H]2[C@@H]3CCC4=CC(=O)C=C[C@]4(C)[C@@]3(F)[C@@H](O)C[C@]2(C)[C@@]1(O)C(=O)COP(=O)(O)O [Dexamethasone phosphate]
solubility in water: practically insoluble in water
